Laboratory results as given in patent US20250041306A1, “TARGETED PROTEASE DEGRADATION (TED) PLATFORM” (EUBULUS BIOTHERAPEUTICS INC., priority 2021, published 2025).

Tests used:
[1] = test system: human small cell lung cancer NCI-H82 xenograft tumor; assay: In vivo efficacy in nude mouse xenograft tumor model of human small cell lung cancer NCI-H82; design: species or system BALB/c nude mice; conditions: nude mice
Description: Transplanted tumor cell line: human small cell lung cancer cell NCI-H82, derived from the American Type Culture Collection Center (ATCC, cryopreserved in liquid nitrogen in the laboratory). Under 5% CO2 and 37° C. culture conditions, cells were routinely cultured in RPMI-1640 culture medium containing 10% fetal bovine serum; they were passaged according to cell growth, with a passage ratio of 1:2 to 1:5.
Experimental animal: Female BALB/c nude mice (number: 65; age: 6-8 weeks) were purchased from Charles River and raised in the SPF animal room of Suzhou Shengsu New Pharmaceutical Development Co., Ltd. (3D Biooptima). The temperature is 20 to 25° C., and relative humidity is 40% to 70%, with bright light and dark light for 12 hours each; animals were free to drink and eat. After normal feeding for about 5 days, mice with good physical signs can be selected for this experiment after veterinary inspection. Before grouping, animals were identified at the base of tail using maker pens. After grouping, each animal was identified by ear clipping.
Animal model preparation: NCI-H82 cells at logarithmic growth phase were collected, the cells were resuspended in 50% serum-free RPMI-1640 medium and 50% Matrigel after counting. The concentration of cells was adjusted to […] cells/mL. […] After inoculation, the animal status and tumor growth were regularly observed, the tumor diameter was measured using a electronic vernier caliper, the data were entered into Excel to calculate the tumor volume. […] After the start of experiment, the tumor diameter was measured twice a week, the tumor volume was calculated, and the animal weight was weighed and recorded at the same time. […]
Preparation of UB-181322 sample: An appropriate amount of UB series sample was weighed and put it into a glass bottle; an appropriate volume of DMSO was added. […] The liquid was vortexed to mix evenly, with the proportions of DMSO, 30% Solutol aqueous solution and ultrapure water in the liquid being 5%, 20% and 75%, to obtain preparations with appropriate final concentrations, which are ready for use. […]

[2] = test system: Human Small Cell Lung Cancer NCI-H82; assay: Cell proliferation experiment (Alarm blue), H82; type: cell-based; conditions: H82 cells, 72 h culture; read-out: Anti cell proliferative activity EC50, H82
Outline: (§1)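 Log-phase cells in 96-well plates were exposed 72 h to compound in a 5-fold dilution series, duplicate wells. Viability was measured by Alamar blue fluorescence, and IC50 was derived from a fit using minimum, maximum and slope.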

[3] = test system: Human Small Cell Lung Cancer H69; assay: Cell proliferation experiment (Alarm blue), H69; type: cell-based; conditions: H69 cells, 72 h culture; read-out: Anti cell proliferative activity EC50, H69
Outline: as §1

[4] = test system: Human Colon Cancer cells Colo205; assay: Cell proliferation experiment (Alarm blue), Colo205; type: cell-based; conditions: Colo205 cells, 72 h culture; read-out: Anti cell proliferative activity EC50, Colo205
Outline: as §1

Human Colon Cancer HT-29 = assay: Cell proliferation experiment (Alarm blue), HT-29; type: cell-based; conditions: HT-29 cells, 72 h culture; read-out: Anti cell proliferative activity EC50, HT-29
Outline: as §1

[5] = test system: human gastric carcinoma cells N87; assay: Cell proliferation experiment (Alarm blue), N87; type: cell-based; conditions: N87 cells, 72 h culture; read-out: Anti cell proliferative activity EC50, N87
Outline: as §1

[6] = injection 23 mg/kg once every two days (FIG. 3B)

## CC(C)[C@@H](NC(=O)CCOCCOCCOCCOCCOCCOCCOCCOCCN1C(=O)CC(SC[C@H](N)C(=O)N[C@H](Cc2ccccc2)C(=O)N[C@H]2CSSC[C@@H](C(=O)N[C@H](CO)[C@@H](C)O)NC(=O)[C@H]([C@@H](C)O)NC(=O)[C@H](CCCCN)NC(=O)[C@@H](Cc3c[nH]c4ccccc34)NC(=O)[C@H](Cc3ccccc3)NC2=O)C1=O)C(=O)N[C@@H](C)C(=O)Nc1ccc(COC(=O)N(CCC#Cc2ccc3c(c2)CN(C2CCC(=O)NC2=O)C3=O)[C@H]2CC[C@H](NC(=O)N3CCN(c4ccc(Nc5ncc(Cl)c(Nc6ccccc6C(N)=O)n5)cc4)CC3)CC2)cc1 (some centres unmarked) [UB-181322]
[1]; injection 23 mg/kg once every two days (FIG. 3A)
  tumor inhibitory effect compared with blank group: shows the effect of inhibiting tumor growth
[1]; [6]
  mouse body weight during the administration period: does not change significantly
  toxicity: low
[2]
  EC50: 312 nM
[3]
  EC50: > 1000 nM
[4]
  EC50: 384 nM
Human Colon Cancer HT-29
  EC50: > 1000 nM
[5]
  EC50: 470 nM
